This assay deals with T1, Recombinant autotaxin (Homo sapiens, UniProt Q13822).
T1 construct: made in house; host or cells: Hi5 insect cells (baculovirus)
Briefly: Autotaxin assay (Amplex Red, LPC substrate). The conditions noted are these: for IC50: recombinant autotaxin, LPC substrate, Amplex Red detection, values given as upper bounds. The assay is classed as biochemical. A digest of the protocol: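 Recombinant autotaxin (Hi5 baculovirus, 16 ng) pre-incubated with compound 30 min at 22° C, then reacted with 75 μM egg LPC for 90 min at 37° C. Choline released is coupled to H2O2 and Amplex Red fluorescence (ex 485/em 612 nm). IC50 from ten 1:3 dilutions from 30 μM, duplicates, normalised to 500 μM C14 LPA.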

One may read the IC50 as the concentration that gives 50% inhibition. As to `O=C(OCc1cccc(C(F)(F)F)c1)N1CCN(C2CCN(C(=O)c3ccc4[nH]nnc4c3)CC2)CC1` [Compound 115, 4-[1-(1H-Benzotriazole-5-carbonyl)-piperidin-4-yl]-piperaizne-1-carboxylic acid 3-trifluoromethyl-benzyl ester], the IC50 was under 1 µM.

Turning to `O=C(COc1ccc(OC(F)(F)F)cc1)N1CCN(C2CCN(C(=O)c3ccc4[nH]nnc4c3)CC2)CC1` [Compound 160, 1-{4-[1-(1H-Benzotriazole-5-carbonyl)-piperidin-4-yl]-piperazin-1-yl}-2-(4-trifluoromethoxy-phenoxy)-ethanone], the IC50 is under 10 µM.

In the case of `O=C(OCc1ccc(OC(F)(F)F)c(Br)c1)N1CCN(C2CCN(C(=O)c3ccc4[nH]nnc4c3)CC2)CC1` [Compound 166, 4-[1-(1H-Benzotriazole-5-carbonyl)-piperidin-4-yl]-piperazine-1-carboxylic acid 3-bromo-4-trifluoromethoxy-benzyl ester], the 50% inhibitory concentration (IC50) is under 1 µM.

`CC(CC(=O)N1CCN(C2CCN(C(=O)c3ccc4[nH]nnc4c3)CC2)CC1)c1ccc(C(F)(F)F)cc1` (centres unmarked) [Compound 177, 1-{4-[1-(1H-Benzotriazole-5-carbonyl)-piperidin-4-yl]-piperazin-1-yl}-3-(4-trifluoromethyl-phenyl)-butan-1-one]: the IC50 is under 10 µM.

For `O=C(c1cc(Cl)c(F)c(Cl)c1)N1CCC(N2CCN(C(=O)c3ccc4[nH]nnc4c3)CC2)CC1` [Compound 91, (1H-Benzotriazol-5-yl)-{4-[1-(3,5-dichloro-4-fluoro-benzoyl)-piperidin-4-yl]-piperazin-1-yl}-methanone], for the setting “% of control at 1E−05 (compound concentration), uninhibited control = 100%”, the “% CTRL (1E−05)” value stood at 66%.
